Values quoted from earlier work in patent US7413690B1, “Process and apparatus for producing spherical pellets using molten solid matrices” (The University of Mississippi, priority 2003, dated 2008).

| Structure (SMILES) | water solubility (in words) |
| --- | --- |
| C[C@@H]1C[C@H]2[C@@H]3CCC4=CC(=O)C=C[C@]4(C)[C@@]3(F)[C@@H](O)C[C@]2(C)[C@@]1(O)C(=O)CO [Dexamethasone] | water insoluble |
| Cn1c(=O)c2[nH]cnc2n(C)c1=O [theophylline] | water soluble |
